In US10435399B2, “HDAC6 inhibitory heterocyclic compound” (TAKEDA PHARMACEUTICAL COMPANY LIMITED, priority 2017, dated 2019):

Target: T1, HDAC6 enzyme (Homo sapiens, UniProt Q9UBN7)
T1 construct: transducing full length HDAC6 gene into Sf-9 insect cells; GST; purchased SignalChem; host or cells: Sf-9 insect cells
T1 sequence (Q9UBN7 1-1215): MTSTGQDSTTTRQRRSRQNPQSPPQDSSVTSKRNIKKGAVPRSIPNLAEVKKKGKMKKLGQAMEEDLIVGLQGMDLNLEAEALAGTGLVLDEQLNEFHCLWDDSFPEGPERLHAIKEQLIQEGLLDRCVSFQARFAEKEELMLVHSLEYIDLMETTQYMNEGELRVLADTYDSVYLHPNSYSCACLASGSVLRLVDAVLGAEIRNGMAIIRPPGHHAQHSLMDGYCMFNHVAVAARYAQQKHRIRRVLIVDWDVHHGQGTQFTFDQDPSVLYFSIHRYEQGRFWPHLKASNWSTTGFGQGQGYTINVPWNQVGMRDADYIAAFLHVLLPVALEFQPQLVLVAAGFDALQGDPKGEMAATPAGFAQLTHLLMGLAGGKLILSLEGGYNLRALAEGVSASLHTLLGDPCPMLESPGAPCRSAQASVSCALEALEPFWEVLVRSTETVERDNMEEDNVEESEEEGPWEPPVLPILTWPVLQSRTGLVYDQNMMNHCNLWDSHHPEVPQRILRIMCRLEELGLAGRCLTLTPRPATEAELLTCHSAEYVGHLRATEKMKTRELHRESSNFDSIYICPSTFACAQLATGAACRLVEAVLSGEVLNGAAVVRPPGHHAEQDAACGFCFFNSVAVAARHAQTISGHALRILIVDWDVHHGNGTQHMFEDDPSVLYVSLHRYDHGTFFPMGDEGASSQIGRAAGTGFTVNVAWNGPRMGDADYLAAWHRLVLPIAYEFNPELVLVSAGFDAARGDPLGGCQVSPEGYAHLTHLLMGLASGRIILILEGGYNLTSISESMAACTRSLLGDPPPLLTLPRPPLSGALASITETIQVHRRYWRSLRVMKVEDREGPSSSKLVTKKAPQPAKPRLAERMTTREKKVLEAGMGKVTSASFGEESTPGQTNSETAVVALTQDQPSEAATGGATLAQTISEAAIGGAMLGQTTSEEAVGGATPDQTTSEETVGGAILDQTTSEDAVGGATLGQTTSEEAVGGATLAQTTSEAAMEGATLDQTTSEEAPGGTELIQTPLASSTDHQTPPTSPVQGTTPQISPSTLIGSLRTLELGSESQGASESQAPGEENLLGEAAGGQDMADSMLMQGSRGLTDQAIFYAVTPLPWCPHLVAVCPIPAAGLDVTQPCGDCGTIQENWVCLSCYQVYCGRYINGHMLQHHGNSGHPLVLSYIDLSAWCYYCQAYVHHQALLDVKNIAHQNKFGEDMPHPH
Assay: HDAC6 enzyme inhibitory activity (HDAC-Glo I/II Assay kit)
Format: biochemical
Conditions: 10 μM; wells without enzyme = 100% inhibition; read-out: HDAC6 inhibitory rate (%) (10 μM)
Summary of the method: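 Sf-9-derived GST-purified full-length HDAC6 + cpd, 60 min RT, 24 mM Tris pH 7.5/0.6 mM glutathione/0.01% Tween-20; add HDAC-Glo substrate-developer, 20 min RT; luminescence. No-enzyme = 100% inhibition.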

Row | inhibition at 10 µM | SMILES
1 | 99% | O=C1c2cc(-c3nnc(C(F)F)o3)ccc2CN1c1ccccc1-c1cccc(C2CC2)c1 [Example 286, 2-(3′-cyclopropylbiphenyl-2-yl)-6-(5-(difluoromethyl)-1,3,4-oxadiazol-2-yl)isoindolin-1-one]
2 | 100% | O=C1c2cc(-c3nnc(C(F)F)o3)ccc2CN1c1ccccc1-c1ccc2c(c1)CCO2 [Example 287, 6-(5-(difluoromethyl)-1,3,4-oxadiazol-2-yl)-2-(2-(2,3-dihydro-1-benzofuran-5-yl)phenyl)isoindolin-1-one]
3 | 102% | O=C1c2cc(-c3nnc(C(F)F)o3)ccc2CN1c1ccccc1-c1cccc2c1CCO2 [Example 288, 6-(5-(difluoromethyl)-1,3,4-oxadiazol-2-yl)-2-(2-(2,3-dihydro-1-benzofuran-4-yl)phenyl)isoindolin-1-one]
4 | 101% | O=C1c2cc(-c3nnc(C(F)F)o3)ccc2CN1c1ccccc1-c1cccc2c1OCC2 [Example 289, 6-(5-(difluoromethyl)-1,3,4-oxadiazol-2-yl)-2-(2-(2,3-dihydro-1-benzofuran-7-yl)phenyl)isoindolin-1-one]
5 | 100% | O=C1c2cc(-c3nnc(C(F)F)o3)ccc2CN1c1ccccc1-c1cccc(C(F)F)c1 [Example 293, 2-(3′-(difluoromethyl)-biphenyl-2-yl)-6-(5-(difluoromethyl)-1,3,4-oxadiazol-2-yl)isoindolin-1-one]
6 | 99% | O=C1c2cc(-c3nnc(C(F)F)o3)ccc2CN1c1ccccc1-c1ccc2c(c1)OCC2 [Example 304, 6-(5-(difluoromethyl)-1,3,4-oxadiazol-2-yl)-2-(2-(2,3-dihydro-1-benzofuran-6-yl)phenyl)isoindolin-1-one]
7 | 98% | O=C1c2cc(-c3nnc(C(F)F)o3)ccc2CN1c1ccccc1-c1ccc(F)c(F)c1 [Example 307, 2-(3′,4′-difluorobiphenyl-2-yl)-6-(5-(difluoromethyl)-1,3,4-oxadiazol-2-yl)-isoindolin-1-one]
8 | 91% | O=C1c2cc(-c3nnc(C(F)F)o3)ccc2CN1c1ccccc1-c1ccc(F)cc1F [Example 310, 2-(2′,4′-difluorobiphenyl-2-yl)-6-(5-(difluoromethyl)-1,3,4-oxadiazol-2-yl)isoindolin-1-one]
9 | 96% | Cc1cccc(-c2ccccc2N2Cc3ccc(-c4nnc(C(F)F)o4)cc3C2=O)c1 [Example 312, 6-(5-(difluoromethyl)-1,3,4-oxadiazol-2-yl)-2-(3′-methyl-biphenyl-2-yl)isoindolin-1-one]
10 | 98% | Cc1ccc(-c2ccccc2N2Cc3ccc(-c4nnc(C(F)F)o4)cc3C2=O)cc1 [Example 313, 6-(5-(difluoromethyl)-1,3,4-oxadiazol-2-yl)-2-(4′-methyl-biphenyl-2-yl)isoindolin-1-one]

Continued, compound first:

Row | SMILES | inhibition at 10 µM
11 | CCOc1cc(-c2ccccc2N2Cc3ccc(-c4nnc(C(F)F)o4)cc3C2=O)ccn1 [Example 290, 6-(5-(difluoromethyl)-1,3,4-oxadiazol-2-yl)-2-(2-(2-ethoxypyridin-4-yl)-phenyl)isoindolin-1-one] | 99%
12 | CCOc1cnccc1-c1ccccc1N1Cc2ccc(-c3nnc(C(F)F)o3)cc2C1=O [Example 291, 6-(5-(difluoromethyl)-1,3,4-oxadiazol-2-yl)-2-(2-(3-ethoxypyridin-4-yl)-phenyl)isoindolin-1-one] | 98%
13 | O=C1c2cc(-c3nnc(C(F)F)o3)ccc2CN1c1ccccc1-c1ccc(C(F)F)cc1 [Example 292, 2-(4′-(difluoromethyl)-biphenyl-2-yl)-6-(5-(difluoromethyl)-1,3,4-oxadiazol-2-yl)isoindolin-1-one] | 97%
14 | CC(C)Oc1cc(-c2ccccc2N2Cc3ccc(-c4nnc(C(F)F)o4)cc3C2=O)ccn1 [Example 294, 6-(5-(difluoromethyl)-1,3,4-oxadiazol-2-yl)-2-(2-(2-isopropoxypyridin-4-yl)phenyl)isoindolin-1-one] | 100%
15 | COc1ncc(Cl)cc1-c1ccccc1N1Cc2ccc(-c3nnc(C(F)F)o3)cc2C1=O [Example 295, 2-(2-(5-chloro-2-methoxy-pyridin-3-yl)phenyl)-6-(5-(difluoromethyl)-1,3,4-oxadiazol-2-yl)isoindolin-1-one] | 102%
16 | O=C1c2cc(-c3nnc(C(F)F)o3)ccc2CN1c1ccccc1-c1cccc(OC(F)F)c1 [Example 296, 2-(3′(difluoromethoxy)-biphenyl-2-yl)-6-(5-(difluoromethyl)-1,3,4-oxadiazol-2-yl)isoindolin-1-one] | 101%
17 | O=C1c2cc(-c3nnc(C(F)F)o3)ccc2CN1c1ccccc1-c1cncc(C(F)(F)F)c1 [Example 297, 6-(5-(difluoromethyl)-1,3,4-oxadiazol-2-yl)-2-(2-(5-(trifluoromethyl)pyridin-3-yl)phenyl)isoindolin-1-one] | 98%
18 | O=C1c2cc(-c3nnc(C(F)F)o3)ccc2CN1c1ccccc1-c1ccccc1OC(F)(F)F [Example 298, 6-(5-(difluoromethyl)-1,3,4-oxadiazol-2-yl)-2-(2′-(trifluoromethoxy)biphenyl-2-yl)isoindolin-1-one] | 100%
19 | O=C1c2cc(-c3nnc(C(F)F)o3)ccc2CN1c1ccccc1-c1ccc(OC(F)(F)F)cc1 [Example 299, 6-(5-(difluoromethyl)-1,3,4-oxadiazol-2-yl)-2-(4′-(trifluoromethoxy)biphenyl-2-yl)isoindolin-1-one] | 94%
20 | O=C1c2cc(-c3nnc(C(F)F)o3)ccc2CN1c1ccccc1-c1cccc(OC(F)(F)F)c1 [Example 300, 6-(5-(difluoromethyl)-1,3,4-oxadiazol-2-yl)-2-(3′-(trifluoromethoxy)biphenyl-2-yl)isoindolin-1-one] | 97%
21 | O=C1c2cc(-c3nnc(C(F)F)o3)ccc2CN1c1ccccc1-c1cccc(F)n1 [Example 301, 6-(5-(difluoromethyl)-1,3,4-oxadiazol-2-yl)-2-(2-(6-fluoropyridin-2-yl)phenyl)-isoindolin-1-one] | 106%
22 | COc1cccc(-c2ccccc2N2Cc3ccc(-c4nnc(C(F)F)o4)cc3C2=O)n1 [Example 302, 6-(5-(difluoromethyl)-1,3,4-oxadiazol-2-yl)-2-(2-(6-methoxypyridin-2-yl)-phenyl)isoindolin-1-one] | 100%
23 | O=C1c2cc(-c3nnc(C(F)F)o3)ccc2CN1c1ccccc1-c1cnc2occc2c1 [Example 303, 6-(5-(difluoromethyl)-1,3,4-oxadiazol-2-yl)-2-(2-(furo-[2,3-b]pyridin-5-yl)phenyl)-isoindolin-1-one] | 99%
24 | O=C1c2cc(-c3nnc(C(F)F)o3)ccc2CN1c1ccccc1-c1cccc(Cl)n1 [Example 305, 2-(2-(6-chloropyridin-2-yl)-phenyl)-6-(5-(difluoro-methyl)-1,3,4-oxadiazol-2-yl)isoindolin-1-one] | 101%
25 | Cc1cn2cc(-c3ccccc3N3Cc4ccc(-c5nnc(C(F)F)o5)cc4C3=O)ccc2n1 [Example 306, 6-(5-(difluoromethyl)-1,3,4-oxadiazol-2-yl)-2-(2-(2-methylimidazo[1,2-a]-pyridin-6-yl)phenyl)-isoindolin-1-one] | 101%
26 | O=C1c2cc(-c3nnc(C(F)F)o3)ccc2CN1c1ccccc1-c1cccc(F)c1F [Example 308, 2-(2′,3′-difluorobiphenyl-2-yl)-6-(5-(difluoromethyl)-1,3,4-oxadiazol-2-yl)-isoindolin-1-one] | 97%
27 | O=C1c2cc(-c3nnc(C(F)F)o3)ccc2CN1c1ccccc1-c1cc(F)ccc1F [Example 309, 2-(2′,5′-difluorobiphenyl-2-yl)-6-(5-(difluoromethyl)-1,3,4-oxadiazol-2-yl)isoindolin-1-one] | 97%
28 | Cc1ccccc1-c1ccccc1N1Cc2ccc(-c3nnc(C(F)F)o3)cc2C1=O [Example 311, 6-(5-(difluoromethyl)-1,3,4-oxadiazol-2-yl)-2-(2′-methyl-biphenyl-2-yl)isoindolin-1-one] | 99%
